Experimental data published in patent US9540333B2, “Alkyl amide-substituted pyrimidine compounds useful in the modulation of IL-12, IL-23 and/or IFNα” (Bristol-Myers Squibb Company, priority 2012, dated 2017).

Experiments:
[1] = system: IL-23 stimulated Kit225 T cells with STAT-dependent luciferase reporter; test: Kit225 T cell assay, IL-23 stimulated STAT-dependent luciferase reporter; assay type: cell-based; details: 20 ng/mL human recombinant IL-23, 5-6 hours, read-out: IL-23 Kit225 Reporter, LE (IC50)
Description: (§1) Kit225 T cells with a stably-integrated STAT-dependent luciferase reporter were plated in RPMI (Gibco) containing 10% heat-inactivated FBS (Gibco) and 100 U/mL PenStrep (Gibco). The cells were then stimulated with either 20 ng/mL human recombinant IL-23 or 200 U/mL human recombinant IFNα (PBL InterferonSource) for 5-6 hours. Luciferase expression was measured using the STEADY-GLO® Luciferase Assay System (Promega) according to the manufacturer's instructions. Inhibition data were calculated by comparison to no inhibitor control wells for 0% inhibition and non-stimulated control wells for 100% inhibition. Dose response curves were generated to determine the concentration required to inhibit 50% of cellular response (IC50) as derived by non-linear regression analysis.

[2] = molecular target: T1, His-tagged protein corresponding to amino acids 575-869 of human Tyk2 (Homo sapiens, UniProt P29597); test: Probe displacement assay (scintillation proximity, radiolabeled probe); assay type: binding; details: 2.5 nM Tyk2 (575-869), 40 nM tritiated probe, 30 minutes at room temperature
T1 construct: His-tagged protein corresponding to amino acids 575-869 of human Tyk2; made in house
Description: The probe displacement assay is conducted as follows: In a […], test compounds along with recombinantly expressed His-tagged protein corresponding to amino acids 575-869 of human Tyk2 (sequence shown below) at 2.5 nM, 40 nM ((R)—N-(1-(3-(8-methyl-5-(methylamino)-8H-imidazo[4,5-d]thiazolo[5,4-b]pyridin-2-yl)phenyl)ethyl)-2-([^3H]methylsulfonyl)benzamide) (preparation described below) and 80 μg/mL Copper His-Tag scintillation proximity assay beads (Perkin Elmer, Catalog #RPNQ0095) in 50 mM HEPES, pH 7.5, containing 100 μg/mL bovine serum albumin and 5% DMSO were incubated for 30 minutes at room temperature. The amount of radiolabeled probe (preparation described below) bound to Tyk2 was then quantified by scintillation counting, and the inhibition by the test compound calculated by comparison to wells either with no inhibitor (0% inhibition) or without Tyk2 (100% inhibition). The IC50 value is defined as the concentration of test compound required to inhibit radiolabeled probe binding by 50%.
Protein Sequence of recombinant Hig-tagged Tyk2 (575-869):
The preparation of radiolabeled probe, (R)—N-(1-(3-(8-methyl-5-(methylamino)-8H-imidazo[4,5-d]thiazolo[5,4-b]pyridin-2-yl)phenyl)ethyl)-2-([^3H]methylsulfonyl)benzamide, was performed as described below.

[3] = system: IFNα stimulated Kit225 T cells with STAT-dependent luciferase reporter; test: Kit225 T cell assay, IFNα stimulated STAT-dependent luciferase reporter; assay type: cell-based; details: 200 U/mL human recombinant IFNα, 5-6 hours, read-out: IFNα Kit225 Reporter, LE (IC50)
Description: as §1

T1 sequence (P29597 575-869): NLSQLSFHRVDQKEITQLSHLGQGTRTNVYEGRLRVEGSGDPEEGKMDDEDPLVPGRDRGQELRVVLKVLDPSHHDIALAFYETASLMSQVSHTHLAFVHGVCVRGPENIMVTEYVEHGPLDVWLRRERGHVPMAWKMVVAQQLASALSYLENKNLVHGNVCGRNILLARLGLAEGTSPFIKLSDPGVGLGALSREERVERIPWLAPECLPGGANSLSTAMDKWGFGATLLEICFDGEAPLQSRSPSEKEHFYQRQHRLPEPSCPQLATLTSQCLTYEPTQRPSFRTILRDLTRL

IC50 [1] [µM]	EC50 [2] [µM]	IC50 [3] [µM]	SMILES
3.4	0.32	1.6	CNC(=O)c1cnc(NCC2CC2)nc1Nc1ccccc1S(C)(=O)=O [Example 1]
2.65	0.06	2.79	CNC(=O)c1cnc(Nc2ccc(F)cc2)nc1Nc1ccccc1C(N)=O [Example 2]
3.51	0.84	12.5	CNC(=O)c1cnc(Nc2ccc(F)cc2)nc1Nc1ccccc1 [Example 3]
8.51	0.53	9.52	CNC(=O)c1cnc(Nc2ccccc2)nc1Nc1ccccc1 [Example 4]
4.66	0.05	3.02	CNC(=O)c1cnc(Nc2cccc(-c3ccccc3)c2)nc1Nc1ccccc1C(N)=O [Example 5]
3.54	1.35	12.5	CNC(=O)c1cnc(Nc2ccc(F)cc2)nc1Nc1cccc(C(N)=O)c1 [Example 6]
9.68	0.11	12.5	CNC(=O)c1cnc(NC2CCC2)nc1Nc1ccccc1C(N)=O [Example 7]
8.28	0.12	12.5	CNC(=O)c1cnc(NC2CCCC2)nc1Nc1ccccc1C(N)=O [Example 8]
1.32	0.07	1.45	CNC(=O)c1cnc(Nc2ccc(-c3ccccc3)cc2)nc1Nc1ccccc1C(N)=O [Example 10]
0.06	0.07	0.59	CNC(=O)c1cnc(Nc2ccc(F)cc2)nc1Nc1ccccc1S(C)(=O)=O [Example 11]
0.2	0.03	0.16	CNC(=O)c1cnc(Nc2ccccc2)nc1Nc1ccccc1S(C)(=O)=O [Example 12]
0.2	0.02	0.31	CNC(=O)c1cnc(Nc2ccc(F)c(C)c2)nc1Nc1ccccc1S(C)(=O)=O [Example 13]
0.28	0.00847	0.46	CNC(=O)c1cnc(Nc2ccc(F)c(F)c2)nc1Nc1ccccc1S(C)(=O)=O [Example 14]
